Data taken from patent US7166622B2, “Substituted phenylsulfonamide inhibitors of beta amyloid production” (Wyeth, priority 2002, dated 2007).
Where “and” joins values, the source holds several entries; their conditions need not be identical. Identical values can stand only once.

Key:
beta amyloid production = assay: Repressor Release Assay (RRA); type: cell-based; conditions: for fold induction at 3 µg/mL / fold induction at 10 µg/mL / APPI Fold Increase: luciferase activity over diluent control; for fold induction at 3 µg/mL / fold induction at 10 µg/mL: read-out: APPI Fold Increase; for APPI % of Example #98: relative to Example 98
Procedure, shortened: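 Read-out is luciferase luminescence (RLU) after 36-48 h duplicate compound exposure of transfected CHO-K1 cells. These cells carry transiently introduced APP-lacI and pRSVO-luc DNA. Diluent control was 25 mM Hepes/1% DMSO; toxicity recorded as binary score (1 non-toxic, 0 toxic).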

CHO-K1 cells = assay: Toxicity in RRA (loss of luciferase signal); conditions: toxicity = loss of signal (<0.75 fold increase)
Procedure: The beta amyloid inhibitory activity of the compounds of the present invention was determined using the Repressor Release Assay (RRA).
“Fold Increase” refers to the amount of luciferase activity (measured in relative light units) over diluent control. “SEM” refers to the standard error of the mean for fold increase.

Compound	fold induction at 10 µg/mL (beta amyloid production; Conc 10 μg/ml)	(%)APPI Toxicity (CHO-K1 cells; Conc 10 μg/ml)	other results
C=CCC(O)[C@@H](NS(=O)(=O)c1ccc(F)cc1)[C@@H](C)CC (stereo partly drawn) [Example 134, 4-fluoro-N-{(1S)-2-hydroxy-1-[(1S)-1-methylpropyl]-4-pentenyl}benzenesulfonamide]	3	1 (1=non-toxic)	fold induction at 3 µg/mL (beta amyloid production; Conc 3 μg/ml): 1.5; (%)APPI Toxicity (CHO-K1 cells; Conc 3 μg/ml): 1 (1=non-toxic)
CCC(O)[C@@H](NS(=O)(=O)c1ccc(F)cc1)[C@@H](C)CC (stereo partly drawn) [Example 135, 4-fluoro-N-{(1S)-2-hydroxy-1-[(1S)-1-methylpropyl]butyl}benzenesulfonamide]	1.91	1 (1=non-toxic)	–
CC[C@H](C)[C@H](NS(=O)(=O)c1ccc(F)cc1)C(O)c1ccc(Cl)cc1 (stereo partly drawn) [Example 136, N-{(1S,2S)-1-[(4-chlorophenyl)(hydroxy)methyl]-2-methylbutyl}-4-fluorobenzenesulfonamide]	3.04	1 (1=non-toxic)	–
CC[C@H](C)[C@H](NS(=O)(=O)c1ccc(F)cc1)C(O)C=C(C)C (stereo partly drawn) [Example 137, 4-fluoro-N-{(1S)-2-hydroxy-4-methyl 1-[(1S)-1-methylpropyl]-3-pentenyl}benzenesulfonamide]	1.61	1 (1=non-toxic)	–
C=C(C)C(O)[C@@H](NS(=O)(=O)c1ccc(F)cc1)[C@@H](C)CC (stereo partly drawn) [Example 138, 4-fluoro-N-{(1S)-2-hydroxy-3-methyl-1-[(1S)-1-methylpropyl]-3-butenyl}benzenesulfonamide]	1.57	1 (1=non-toxic)	–
CC[C@H](C)[C@H](NS(=O)(=O)c1ccc(F)cc1)C(O)c1ccc(OC)cc1 (stereo partly drawn) [Example 139, 4-fluoro-N-{(1S,2S)-1-[hydroxy(4-methoxyphenyl)methyl]-2-methylbutyl}benzenesulfonamide]	2.12	1 (1=non-toxic)	–
CC[C@H](C)[C@H](NS(=O)(=O)c1ccc(F)cc1)C(O)CCC1OCCCO1 (stereo partly drawn) [Example 140, N-{(1S)-4-(1,3-dioxan-2-yl)-2-hydroxy-1-[(1S)-1-methylpropyl]butyl}-4-fluorobenzenesulfonamide]	1.52	1 (1=non-toxic)	–
C=CCCC(O)[C@@H](NS(=O)(=O)c1ccc(F)cc1)[C@@H](C)CC (stereo partly drawn) [Example 141, 4-fluoro-N-{(1S)-2-hydroxy-1-[(1S)-1-methylpropyl]-5-hexenyl}benzenesulfonamide]	1.79	1 (1=non-toxic)	–
CC[C@H](C)[C@H](NS(=O)(=O)c1ccc(F)cc1)C(O)c1ccc(SC)cc1 (stereo partly drawn) [Example 142, 4-fluoro-N-((1S,2 S)-1-{hydroxy[4-(methylsulfanyl)phenyl]methyl}-2-methylbutyl)benzenesulfonamide]	2.71	1 (1=non-toxic)	–
CC[C@H](C)[C@H](NS(=O)(=O)c1ccc(F)cc1)C(O)c1ccc(N(C)C)cc1 (stereo partly drawn) [Example 143, N-{(1S,2S)-1-[[4-(dimethylamino)phenyl](hydroxy)methyl]-2-methylbutyl}-4-fluorobenzenesulfonamide]	5.72	1 (1=non-toxic)	–
CC[C@H](C)[C@H](NS(=O)(=O)c1ccc(F)cc1)C(O)c1cccc2ccccc12 (stereo partly drawn) [Example 144, 4-fluoro-N-{(1S,2S)-1-[hydroxy(1-naphthyl)methyl]-2-methylbutyl}benzenesulfonamide]	1.69	1 (1=non-toxic)	–
CC[C@H](C)[C@H](NS(=O)(=O)c1ccc(Br)cc1)C(C)O (stereo partly drawn) [Example 145, 4-bromo-N-[(1S,2S)-1-(1-hydroxyethyl)-2-methylbutyl]benzenesulfonamide]	3.9	1 (1=non-toxic)	–
CC[C@H](C)[C@H](NS(=O)(=O)c1ccc(Br)cc1)C(O)C1CCCC1 (stereo partly drawn) [Example 146, 4-bromo-N-1-{(1S,2S)-1-[cyclopentyl(hydroxy)methyl]-2-methylbutyl}benzenesulfonamide]	–	1 (1=non-toxic)	APPI Fold Increase (beta amyloid production; Conc 3 μg/ml): 1.53 fold; APPI % of Example #98 (beta amyloid production; Conc 3 μg/ml): 60.66%; APPI Fold Increase (beta amyloid production; Conc 10 μg/ml): 4.26 fold and 2.33 fold; APPI % of Example #98 (beta amyloid production; Conc 10 μg/ml): 166.6% and 92.64%; (%)APPI Toxicity (CHO-K1 cells; Conc 3 μg/ml): 1 (1=non-toxic)
CCCCCC(O)[C@@H](NS(=O)(=O)c1ccc(Br)cc1)[C@@H](C)CC (stereo partly drawn) [Example 147, 4-bromo-N-{(1S)-2-hydroxy-1-[(1S)-1-methylpropyl]heptyl}benzenesulfonamide]	1.94	1 (1=non-toxic)	–
CCCCC(O)[C@@H](NS(=O)(=O)c1ccc(Br)cc1)[C@@H](C)CC (stereo partly drawn) [Example 148, 4-bromo-N-{(1S)-2-hydroxy-1-[(1S)-1-methylpropyl]hexyl}benzenesulfonamide]	1.88	1 (1=non-toxic)	–
C=CC(O)[C@@H](NS(=O)(=O)c1ccc(Br)cc1)[C@@H](C)CC (stereo partly drawn) [Example 151, 4-bromo-N-{(1S)-2-hydroxy-1-[(1S)-1-methylpropyl]-3-butenyl}benzenesulfonamide]	2.9	1 (1=non-toxic)	–
C=CCC(O)[C@@H](NS(=O)(=O)c1ccc(Br)cc1)[C@@H](C)CC (stereo partly drawn) [Example 152, 4-bromo-N-{(1S)-2-hydroxy-1-[(1S)-1-methylpropyl]-4-pentenyl}benzenesulfonamide]	6.64	1 (1=non-toxic)	fold induction at 3 µg/mL (beta amyloid production; Conc 3 μg/ml): 1.6; (%)APPI Toxicity (CHO-K1 cells; Conc 3 μg/ml): 1 (1=non-toxic)
CCC(O)[C@@H](NS(=O)(=O)c1ccc(Br)cc1)[C@@H](C)CC (stereo partly drawn) [Example 153, 4-bromo-N-{(1S)-2-hydroxy-1-[(1S)-1-methylpropyl]butyl}benzenesulfonamide]	4.77	1 (1=non-toxic)	fold induction at 3 µg/mL (beta amyloid production; Conc 3 μg/ml): 2; (%)APPI Toxicity (CHO-K1 cells; Conc 3 μg/ml): 1 (1=non-toxic)
CC[C@H](C)[C@H](NS(=O)(=O)c1ccc(Br)cc1)C(O)c1ccc(F)cc1 (stereo partly drawn) [Example 154, 4-bromo-N-{(1S,2S)-1-[(4-fluorophenyl) (hydroxy)methyl]-2-methylbutyl}benzenesulfonamide]	1.68	1 (1=non-toxic)	–
CC[C@H](C)[C@H](NS(=O)(=O)c1ccc(Br)cc1)C(O)c1ccc(Cl)cc1 (stereo partly drawn) [Example 155, 4-bromo-N-{(1S,2S)-1-[(4-chlorophenyl)(hydroxy)methyl]-2-methylbutyl}benzenesulfonamide]	4.37	1 (1=non-toxic)	–
CC[C@H](C)[C@H](NS(=O)(=O)c1ccc(Br)cc1)C(O)C=C(C)C (stereo partly drawn) [Example 156, 4-bromo-N-{(1S)-2-hydroxy-4-methyl-1-[(1S)-1-methylpropyl]-3-pentenyl}benzenesulfonamide]	2.01	1 (1=non-toxic)	fold induction at 3 µg/mL (beta amyloid production; Conc 3 μg/ml): 1.52; (%)APPI Toxicity (CHO-K1 cells; Conc 3 μg/ml): 1 (1=non-toxic)
C=C(C)C(O)[C@@H](NS(=O)(=O)c1ccc(Br)cc1)[C@@H](C)CC (stereo partly drawn) [Example 157, 4-bromo-N-{(1S)-2-hydroxy-3-methyl-1-[(1S)-1-methylpropyl]-3-butenyl}benzenesulfonamide]	1.96	1 (1=non-toxic)	–
CC[C@H](C)[C@H](NS(=O)(=O)c1ccc(Br)cc1)C(O)c1ccc(OC)cc1 (stereo partly drawn) [Example 158, 4-bromo-N-{(11 S,2S)-1-[hydroxy(4-methoxyphenyl)methyl]-2-methylbutyl}benzenesulfonamide]	–	1 (1=non-toxic)	APPI Fold Increase (beta amyloid production; Conc 10 μg/ml): 2.28 fold; APPI % of Example #98 (beta amyloid production; Conc 10 μg/ml): 101.49%
C/C=C(\C)C(O)[C@@H](NS(=O)(=O)c1ccc(Br)cc1)[C@@H](C)CC (stereo partly drawn) [Example 159, 4-bromo-N-{(1S,3E)-2-hydroxy-3-methyl-1-[(1S)-1-methylpropyl]-3-pentenyl}benzenesulfonamide]	2.11	1 (1=non-toxic)	–
CC[C@H](C)[C@H](NS(=O)(=O)c1ccc(Br)cc1)C(O)CCC1OCCCO1 (stereo partly drawn) [Example 160, 4-bromo-N-{(1S)-4-(1,3-dioxan-2-yl)-2-hydroxy-1-[(1S)-1-methylpropyl]butyl} benzenesulfonamide]	–	1 (1=non-toxic)	APPI Fold Increase (beta amyloid production; Conc 10 μg/ml): 1.66 fold; APPI % of Example #98 (beta amyloid production; Conc 10 μg/ml): 73.83%
C=CCCC(O)[C@@H](NS(=O)(=O)c1ccc(Br)cc1)[C@@H](C)CC (stereo partly drawn) [Example 161, 4-bromo-N-{(1S)-2-hydroxy-1-[(1S)-1-methylpropyl]-5-hexenyl}benzenesulfonamide]	1.69	1 (1=non-toxic)	–
CC#CC(O)[C@@H](NS(=O)(=O)c1ccc(Br)cc1)[C@@H](C)CC (stereo partly drawn) [Example 162, 4-bromo-N-{(1S)-2-hydroxy-1-[(1S)-1-methylpropyl]-3-pentynyl}benzenesulfonamide]	1.63	1 (1=non-toxic)	–
CC[C@H](C)[C@H](NS(=O)(=O)c1ccc(Br)cc1)C(O)c1ccc(N(C)C)cc1 (stereo partly drawn) [Example 164, 4-bromo-N-{(1S,2S)-1-[[4-(dimethylamino)phenyl](hydroxy)methyl]-2-methylbutyl} benzenesulfonamide]	–	1 (1=non-toxic)	APPI Fold Increase (beta amyloid production; Conc 10 μg/ml): 3.53 fold; APPI % of Example #98 (beta amyloid production; Conc 10 μg/ml): 149.31%
CC[C@H](C)[C@H](NS(=O)(=O)c1ccc(Cl)cc1)C(C)O (stereo partly drawn) [Example 165, 4-Chloro-N-[(1S,2S)-1-(hydroxyethyl)-2-methylbutyl]benzenesulfonamide]	2.05	1 (1=non-toxic)	–
CCCCCCC(O)[C@@H](NS(=O)(=O)c1ccc(Cl)cc1)[C@@H](C)CC (stereo partly drawn) [Example 167, 4-chloro-N-{(1S)-2-hydroxy-1-[(1S)-1-methylpropyl]octyl}benzenesulfonamide]	9.66	1 (1=non-toxic)	–
